How the values were obtained:
[1] = biological target: T1, Acyl-CoA desaturase 1 (Rattus norvegicus, UniProt P07308); assay: Inhibition of stearoyl-CoA delta9 desaturase in rat microsome
T1 sequence (P07308 whole entry): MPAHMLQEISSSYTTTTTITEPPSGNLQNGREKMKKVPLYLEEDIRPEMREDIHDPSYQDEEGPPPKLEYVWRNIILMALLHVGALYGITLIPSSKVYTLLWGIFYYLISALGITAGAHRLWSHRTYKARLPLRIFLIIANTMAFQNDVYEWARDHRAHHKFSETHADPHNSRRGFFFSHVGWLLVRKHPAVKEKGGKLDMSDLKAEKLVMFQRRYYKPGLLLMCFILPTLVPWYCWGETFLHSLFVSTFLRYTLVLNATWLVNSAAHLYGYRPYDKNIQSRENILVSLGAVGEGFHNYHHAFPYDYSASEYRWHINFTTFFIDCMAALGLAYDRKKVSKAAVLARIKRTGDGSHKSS

[2] = biological target: T2, Stearoyl-CoA desaturase (Homo sapiens, UniProt O00767); assay: Inhibition of stearoyl-CoA delta9 desaturase in human HepG2 cells; assay type: cell-based
T2 sequence (O00767 whole entry): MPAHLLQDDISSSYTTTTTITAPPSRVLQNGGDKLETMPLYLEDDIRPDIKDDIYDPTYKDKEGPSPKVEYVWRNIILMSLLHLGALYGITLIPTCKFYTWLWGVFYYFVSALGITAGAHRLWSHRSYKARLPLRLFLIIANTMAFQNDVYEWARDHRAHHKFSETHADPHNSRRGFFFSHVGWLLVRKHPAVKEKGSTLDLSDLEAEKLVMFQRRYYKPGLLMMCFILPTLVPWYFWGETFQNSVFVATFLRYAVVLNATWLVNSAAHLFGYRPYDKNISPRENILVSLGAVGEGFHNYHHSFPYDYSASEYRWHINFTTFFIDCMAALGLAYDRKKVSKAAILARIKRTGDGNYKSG

[3] = Metabolic stability in human liver microsome after 30 mins; assay type: ADME; settings: liver microsomes, read-out: Stability
[4] = Metabolic stability in Sprague-Dawley rat liver microsome after 30 mins; assay type: ADME; settings: liver microsomes, read-out: Stability
[5] = test system: Rattus norvegicus; assay: Dose normalized AUC in Sprague-Dawley rat at 1 mg/kg, po; assay type: ADME, organism-based; parameters: dose 1 mg/kg, route oral; settings: in vivo
[6] = Cmax in Sprague-Dawley rat at 1.5 mg/kg, po; assay type: ADME, organism-based; parameters: dose 1.5 mg/kg, route oral; settings: in vivo
[7] = Terminal volume of distribution in Sprague-Dawley rat at 1.5 mg/kg, po and 1 mg/kg, iv; assay type: ADME, organism-based; settings: in vivo, read-out: Vbeta
[8] = biological target: Acyl-CoA 6-desaturase (Rattus norvegicus, UniProt Q9Z122); assay: Inhibition of stearoyl-CoA delta6 desaturase in rat microsome
[9] = test system: Rattus norvegicus; assay: Inhibition of stearoyl-CoA delta9 desaturase in high-carbohydrate diet-fed Sprague-Dawley rat dosed orally BID for 5 days assessed as reduction in liver palmitoleic and vaccenic acid level; assay type: functional, organism-based
[10] = Elimination half life in Sprague-Dawley rat at 1 mg/kg, iv; assay type: ADME, organism-based; parameters: dose 1 mg/kg, route intravenous; settings: in vivo, read-out: beta t1/2 (converted)
[11] = Oral bioavailability in Sprague-Dawley rat at 1.5 mg/kg; assay type: ADME, organism-based; settings: in vivo
[12] = Plasma clearance in Sprague-Dawley rat plasma at 1 mg/kg, iv; assay type: ADME, organism-based; parameters: dose 1 mg/kg, route intravenous
[13] = biological target: Acyl-CoA (8-3)-desaturase (Rattus norvegicus, UniProt Q920R3); assay: Inhibition of stearoyl-CoA delta5 desaturase in rat microsome
[14] = test system: Rattus norvegicus; assay: Inhibition of stearoyl-CoA delta9 desaturase in high-carbohydrate diet-fed Sprague-Dawley rat dosed orally BID for 5 days assessed as reduction in plasma palmitoleic and vaccenic acid level; assay type: functional, organism-based
[15] = test system: Rattus norvegicus; assay: Reduction in liver triglyceride level in high-carbohydrate diet-fed Sprague-Dawley rat at 20 mg/kg, po, BID after 5 days measured after 4 hrs of last dose relative to control; assay type: functional; parameters: scale not given: the % may be the effect or the level left
[16] = Apparent permeability from basolateral to apical side of human Caco-2 cells; assay type: ADME, cell-based
[17] = Apparent permeability from apical to basolateral side of human Caco-2 cells; assay type: ADME, cell-based

Acyl-CoA 6-desaturase, sequence (Q9Z122 whole entry): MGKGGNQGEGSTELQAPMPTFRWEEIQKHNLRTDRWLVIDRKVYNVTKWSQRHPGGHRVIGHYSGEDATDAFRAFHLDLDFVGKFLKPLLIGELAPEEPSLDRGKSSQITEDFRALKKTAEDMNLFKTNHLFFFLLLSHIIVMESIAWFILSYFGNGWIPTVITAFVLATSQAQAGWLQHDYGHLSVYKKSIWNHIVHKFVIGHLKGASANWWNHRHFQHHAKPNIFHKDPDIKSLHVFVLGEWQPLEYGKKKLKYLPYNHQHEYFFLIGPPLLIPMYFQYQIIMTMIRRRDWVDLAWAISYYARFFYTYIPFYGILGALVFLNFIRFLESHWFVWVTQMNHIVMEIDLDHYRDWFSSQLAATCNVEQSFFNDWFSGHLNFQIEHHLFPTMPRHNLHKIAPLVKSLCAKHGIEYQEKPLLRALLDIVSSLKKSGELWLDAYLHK
Acyl-CoA (8-3)-desaturase, sequence (Q920R3 whole entry): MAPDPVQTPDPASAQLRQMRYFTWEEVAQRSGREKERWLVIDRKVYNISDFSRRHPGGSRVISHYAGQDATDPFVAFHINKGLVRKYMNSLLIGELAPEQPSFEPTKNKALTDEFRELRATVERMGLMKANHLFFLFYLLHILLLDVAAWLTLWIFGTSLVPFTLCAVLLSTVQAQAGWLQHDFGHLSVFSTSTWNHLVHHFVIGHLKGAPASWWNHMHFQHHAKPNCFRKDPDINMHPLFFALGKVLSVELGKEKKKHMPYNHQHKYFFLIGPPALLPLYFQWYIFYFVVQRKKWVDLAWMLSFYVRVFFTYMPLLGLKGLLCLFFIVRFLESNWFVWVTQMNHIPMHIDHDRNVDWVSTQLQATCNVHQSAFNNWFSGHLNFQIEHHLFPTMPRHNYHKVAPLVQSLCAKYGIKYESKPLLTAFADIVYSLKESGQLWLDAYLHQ

IC50 [1]	IC50 [2]	remaining at 0.5 h [3]	remaining at 0.5 h [4]	SMILES	other results
1.1 µM				Cc1nc2ccc(NCc3cccc(C(F)(F)F)c3)cc2n(CCNC(=O)CCO)c1=O	
0.015 µM	> 1 µM			Cc1nc2ccc(NCc3cccc(C(F)(F)F)c3)cc2n(CCNC(N)=O)c1=O	
0.08 µM		2.3%	1.5%	CC1Oc2ccc(NCc3ccc(Cl)c(Cl)c3)cc2N(CCNC(=O)CO)C1=O (racemic)	
> 3 µM				CC(C)(C)c1nc2ccc(NCc3cccc(C(F)(F)F)c3)cc2n(CCNC(=O)CO)c1=O	
0.11 µM		83%	54%	COc1ccc(-c2nc3ccc(NCc4ccc(Cl)c(Cl)c4)cc3n(CCNC(C)=O)c2=O)cc1	AUC [5]: 0 ng·h/mL
0.012 µM		3.1%	9.6%	CC1(C)Oc2ccc(NCc3ccc(Cl)c(Cl)c3)cc2N(CCNC(=O)CO)C1=O	
	0.119 µM			O=C(CO)Nc1ccc2ncn(Cc3ccc(Cl)c(Cl)c3)c(=O)c2c1	Cmax [6]: 360 ng/mL; Vd [7]: 2.06 L/kg; AUC [5]: 935 ng·h/mL
2.8 µM				CC(C)c1nc2ccc(NCc3cccc(C(F)(F)F)c3)cc2n(CCNC(=O)CO)c1=O	
3.9 µM				Cc1nc2ccc(NCc3cccc(C(F)(F)F)c3)cc2n(CCNC(=O)[C@@H](C)O)c1=O	
0.0019 µM	0.0027 µM	19%	77%	O=C(CO)NCCn1c(=O)c(C(F)(F)F)nc2ccc(NCc3cccc(C(F)(F)F)c3)cc21	
0.0006 µM				COc1ccc(-c2nc3ccc(NCc4ccc(Cl)c(C(F)(F)F)c4)cc3n(CCNC(C)=O)c2=O)cc1	
8 µM				Cc1nc2ccc(NCc3cccc(C(F)(F)F)c3)cc2n(CCNC(=O)[C@H](C)O)c1=O	
0.268 µM	0.068 µM			Cc1nc2ccc(NCc3cccc(C(F)(F)F)c3)cc2n(CCNC(=O)C(O)CO)c1=O (racemic)	
0.038 µM		56%	54%	Cc1nc2ccc(NCc3cccc(C(F)(F)F)c3)cc2n(CCNC(=O)CO)c1=O	IC50 [8]: > 30 µM; Activity [9]: Dose-dependent effect; Cmax [6]: 374 ng/mL; half-life [10]: 0.95 h; bioavailability [11]: 78%; clearance [12]: 88.1 mL/min/kg; Vd [7]: 7.22 L/kg; IC50 [13]: > 30 µM; Activity [14]: Dose-dependent effect; AUC [5]: 148 ng·h/mL; Activity [15]: 50%; Papp B→A [16]: 48.2 ×10⁻⁶ cm/s; Papp A→B [17]: 6.8 ×10⁻⁶ cm/s
0.162 µM				CC(=O)NCCn1c(=O)c(C)nc2ccc(NCc3cccc(C(F)(F)F)c3)cc21	
0.093 µM	0.033 µM			COc1ccc(-c2nc3ccc(NCc4cccc(C(F)(F)F)c4)cc3n(CCNC(C)=O)c2=O)cc1	
	0.0005 µM	32%	14%	O=C(CO)NCCN1C(=O)COc2ccc(NCc3ccc(Cl)c(Cl)c3)cc21	Cmax [6]: 427 ng/mL; half-life [10]: 1.07 h; bioavailability [11]: 39%; clearance [12]: 53 mL/min/kg; Vd [7]: 4.89 L/kg; AUC [5]: 122 ng·h/mL
				O=C(CO)Nc1ccc2ncn(Cc3ccc(Cl)c(C(F)(F)F)c3)c(=O)c2c1	Cmax [6]: 439 ng/mL; Vd [7]: 1.46 L/kg; AUC [5]: 451 ng·h/mL

Source: ChEMBL document CHEMBL1154111, “Potent, orally bioavailable, liver-selective stearoyl-CoA desaturase (SCD) inhibitors” (Bioorg Med Chem Lett, 2009)
